{"source": "patent US20050115197A1", "about": "“Antimicrobial barrier coatings and methods of use” (priority 2003, published 2005)", "system": "Aspergillus niger (ATCC 6275) and Penicillium pinophilum (ATCC 9644) mixture (interior films); Aureobasidium pullulans (ATCC 9348) (exterior films)", "test": "dry-film mildew resistance test of sealer/barrier compositions on coated filter paper on malt agar", "format": "cell-based", "conditions": "level of fungicide in the sealer/barrier composition; up to 14 days incubation", "experimental": "The above sealer/barrier compositions were tested to determine the performance of dry-films as protective sealers in preventing the development of mildew during testing on porous cellulosic substrates. Several test samples of the composition were prepared with levels of fungicide ranging from 250 ppm to 3000 ppm. In addition, a composition was prepared without fungicide for use as a control.\nIndividual samples of the sealer/barrier composition were weighed out. Fungicide was added to the samples of the sealer/barrier coating compositions in a ladder series of levels (e.g., 250, 500, 750 1000 ppm, etc.) and thoroughly mixed. The test porous cellulosic substrates consisting of Whatman No. 30 filter paper were first brush coated each with two (2) coats of test composition, and allowed to dry in a protected location. Duplicate two inch squares were then cut from the coated filter paper specimens and placed on the surface on malt agar petri plates.\nTest inoculums consisting of aqueous spore suspensions at a concentrations of ˜10^5 spores were prepared in sterile water. Those films (compositions) which were intended for use in interior application were inoculated with a mixture of Aspergillus niger (ATCC 6275) and Penicillium pinophilum (ATCC 9644). Films intended for exterior application were inoculated with Aureobasidium pullulans (ATCC 9348). […]"}
{"compound": "c1ccc2[nH]c(-c3cscn3)nc2c1", "note": "[biocide, 2-(4-thiazoyl)benzimidazole]", "values": [{"measurement": "biocide level capable of preventing mold development on the substrate", "value": "≤ 250", "unit": "ppm"}]}
